According to publication PMC4445455 (The FEBS journal, 2015):
Read-outs that look alike come from different tables or passages of the source.

How the values were obtained:
human DHFR [1] = target: T1, human DHFR (Homo sapiens, UniProt P00374); type: biochemical
T1 sequence (P00374 1-187): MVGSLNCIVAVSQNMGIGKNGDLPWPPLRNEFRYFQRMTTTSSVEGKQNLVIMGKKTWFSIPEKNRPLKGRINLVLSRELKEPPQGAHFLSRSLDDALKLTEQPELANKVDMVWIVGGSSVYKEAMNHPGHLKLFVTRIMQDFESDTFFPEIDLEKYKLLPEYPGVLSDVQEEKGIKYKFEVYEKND

E. coli DHFR [2] = target: T2, E. coli DHFR (Escherichia coli, UniProt P0ABQ4); type: biochemical; details: for inhibition at 1 mM inhibitor concentration (in words): E. coli DHFR
T2 sequence (P0ABQ4 whole entry): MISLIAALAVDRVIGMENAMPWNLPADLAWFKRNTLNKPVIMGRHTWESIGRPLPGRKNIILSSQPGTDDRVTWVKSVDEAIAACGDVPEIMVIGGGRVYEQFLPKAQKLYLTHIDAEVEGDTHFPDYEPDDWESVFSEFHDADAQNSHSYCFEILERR

E. coli DHFR [3] = target: T2, E. coli DHFR; details: product inhibition; cited from earlier work
human DHFR [4] = target: T1, human DHFR; details: product inhibition; cited from earlier work
[5] = previous study; cited from earlier work
cancer cells = details: previous study; cited from earlier work
human DHFR [6] = target: T1, human DHFR; experiment: Progress curve analysis, slow tight binding, human DHFR; type: biochemical; details: time course of NADPH depletion
E. coli DHFR [7] = target: T2, E. coli DHFR; experiment: Progress curve analysis, slow tight binding; type: biochemical
E. coli DHFR [8] = target: T2, E. coli DHFR; experiment: Inhibition kinetics: substrate titration at fixed inhibitor concentrations; type: biochemical
[9] = IC-50, human DHFR 12.4 nM, 60 μM NADPH, 50 μM H2F, 100 mM HEPES pH 7.3

SMILES	solubility in water (Solubility in water)	IC50 (E. coli DHFR [2])	Ki (E. coli DHFR [2])	Ki (human DHFR [1])	IC50 (human DHFR [1]; [9])	inhibition at 1 mM inhibitor concentration (in words) (E. coli DHFR [2])	also measured
C1=Cc2ccccc2Nc2ccccc21 [ISB, 2,2'-Iminostilbene]	sparsely soluble in water	587.8 ± 1.2 µM	35.2 ± 5.36 µM				IC50 (human DHFR [1]; IC-50, human DHFR, table footnote to ND): > 2000 µM
NC(=O)c1ccc[n+]([C@@H]2O[C@H](COP(=O)([O-])OP(=O)(O)OC[C@H]3O[C@@H](n4cnc5c(N)ncnc54)[C@H](OP(=O)(O)O)[C@@H]3O)[C@@H](O)[C@H]2O)c1 [NADP^+]							IC50 (E. coli DHFR [3]): ~5 mM; IC50 (human DHFR [4]): ~620 µM
Nc1ccc(NC(=O)c2ccc(C(=O)Nc3ccc(N)cc3)cc2)cc1 [NNBABD, N,N'-bis(4-aminophenyl)benzene-1,4-dicarboxamide]	sparsely soluble in water	176.5 ± 1.1 µM	10.9 ± 2.16 µM	5160 ± 1410 nM	254.5 ± 1.79 µM	almost complete inhibition	bactericidal activity [5]: didn't show; activity against cancer cells (cancer cells): didn't show
O=C(Nc1ccc(Oc2ccc(NC(=O)Nc3ccc([N+](=O)[O-])cc3)cc2)cc1)Nc1ccc([N+](=O)[O-])cc1 [NNCPPU, 1-(4-nitrophenyl)-3-[4-[4-[(4-nitrophenyl)carbamoylamino]phenoxy]phenyl]urea]	sparsely soluble in water	36.6 ± 1.1 µM	2.06 ± 0.378 µM	1970 ± 329 nM	68.9 ± 1.36 µM	almost complete inhibition	bactericidal activity [5]: didn't show; activity against cancer cells (cancer cells): didn't show
Nc1ccc(-c2nc3nc(N)nc(N)c3nc2-c2ccc(N)cc2)cc1 [NSC61642, 6,7-bis (4-aminophenyl) pteridine-2,4-diamine, reference compound]						unambiguous inhibition	
Nc1nc2[nH]cc(CCc3ccc(C(=O)N[C@@H](CCC(=O)O)C(=O)O)cc3)c2c(=O)[nH]1 [NSC698037, pemetrexed, reference compound]						unambiguous inhibition	
C#CCC(Cc1cnc2nc(N)nc(N)c2n1)c1ccc(C(=O)N[C@@H](CCC(=O)O)C(=O)O)cc1 (stereo partly drawn) [NSC754230, pralatrexate, reference compound]						unambiguous inhibition	
Nc1nc(N)c2c(ccc3[nH]ccc32)n1 [PQD, 7H-Pyrrolo(3,2-f)quinazoline-1,3-diamine, reference compound]		0.106 ± 0.0012 µM	0.0042 ± 0.0005 µM	93.4 ± 9 nM	3.087 ± 0.0165 µM	unambiguous inhibition	IC50 (human DHFR [1]; IC-50, human DHFR): 3.09 ± 0.17 µM; fold reduction in potency (IC-50) for human DHFR vs E. coli DHFR (human DHFR [1]; selectivity human/E. coli): 30 fold; mode of inhibitor binding (time dependence, in words) (human DHFR [6]): didn't show any slow-onset of inhibition; Kd (E. coli DHFR [7]): 4.48 ± 0.63 nM; kon (E. coli DHFR [7]): 350000 M⁻¹ s⁻¹; mode of inhibitor binding (time dependence, in words) (E. coli DHFR [7]; E. coli DHFR progress curves): classical tight-binding reversible inhibition; koff (E. coli DHFR [7]; time-dependent inactivation, 50 μM H2F, 60 μM NADPH): 0.094 ± 0.010 min^1; Ki (E. coli DHFR [8]): 3.18 ± 0.51 nM; αKi (E. coli DHFR [8]; uncompetitive inhibition, NADPH titrated): 72.17 ± 4.23 nM
